Read-outs that look alike come from different tables or passages of the source. A value given as a limit tells only on which side of the number the result lay.

This is an account of results in publication PMC11528320, “S-MGBs bearing amidine tail groups are potent, selective antiplasmodial agents” (RSC Medicinal Chemistry, 2024).

The test system of assay [1] is Salmon genomic DNA (gDNA). In words: UV-vis DNA thermal melting (thermal shift) with gDNA. Format: binding. The following applies: 10 μM S-MGB, 0.02 mg mL^−1 salmon gDNA, N = 3; for Tm of S-MGB + gDNA: gDNA alone 70. The procedure: Salmon genomic DNA (gDNA; D1626, Sigma-Aldrich) at 1 mg mL^−1 in 1 mM phosphate buffer (pH 7.4) containing 0.27 mM KCl and 13.7 mM NaCl (P4417, Sigma-Aldrich) was annealed at 90 °C for 10 min and left to cool to room temperature. S-MGBs at 10 mM in DMSO were diluted with the same phosphate buffer to yield a single sample with 10 μM S-MGB and 0.02 mg mL^−1 gDNA in 1 mM phosphate buffer containing 0.27 mM KCl and 13.7 mM NaCl. Control samples containing only S-MGB or gDNA were prepared, respectively. Samples were melted at a rate of 0.5 °C min^−1 from 45 °C to 90 °C with spectra recorded at 260 nm on a UV-1900 UV-vis spectrophotometer fitted with a Peltier temperature controller (Shimadzhu) using LabSolutions (Tm Analysis) software. The melting temperatures (Tms) of the S-MGB:DNA complexes were determined by fitting a sigmoidal function using a Boltzmann distribution in OriginPro.

The test system of the next assay is P. falciparum Dd2. Kind of assay: in vitro asexual P. falciparum imaging assay, Dd2 strain. Particulars: for IC50: Plasmodium falciparum, DD2, 72 h, read-out: Dd2 IC50; for Dd2/3D7: ratio of Dd2 IC50 to 3D7 IC50 (cross-resistance). The format is cell-based. The procedure: (§1) The antiplasmodial in vitro assay was performed as previously described.[13] In brief, P. falciparum parasites (3D7 and Dd2 strains) were grown in RPMI-1640 medium supplemented with 25 mM HEPES, 5% AB human male serum, 2.5 mg mL^−1 Albumax II, and 0.37 mM hypoxanthine. Parasites were subjected to two rounds of sorbitol synchronization prior to compound addition. Ring stage parasites were incubated with compounds in 384-well imaging CellCarrier microplates, for 72 h at 37 °C, 90% N2, 5% CO2, 5% O2, parasites stained with 4′,6-diamidino-2-phenylindole (DAPI) and imaged using an Opera QEHS microplate confocal imaging system (PerkinElmer). Images were analysed as previously described,[13] and raw data normalized using the in-plate positive and negative controls to obtain percent inhibition, used to calculate IC50 values, through a four-parameter logistic curve fitting in Prism (GraphPad).

In assay [2] the test system is double stranded DNA oligo 5′-CGCATATATGCG-3′. Kind of assay: native mass spectrometry (nESI-MS) of binding to dsDNA oligo. The following applies: 9 μM DNA, 100 μM S-MGB. The procedure: DNA oligonucleotide sequence 5′-[…]-3′ was purchased in lyophilized form from Alpha DNA, Canada) and used without further purification, purity assessed by NMR. 100 μM stock solutions of DNA were prepared with 150 mM ammonium acetate solution (Fisher Scientific, Loughborough, Leicestershire, UK) and 2 mM potassium chloride solution (Fisher Scientific, Loughborough, Leicestershire, UK). This solution was annealed at 90 degrees for 10 minutes and allowed to cool to room temperature. 10 mM S-MGB stock in 100% DMSO (Sigma-Aldrich, St. Louis, MO, USA) were diluted to 1 mM S-MGB solution with 150 mM ammonium acetate. Final samples were prepared from this solution to yield final concentrations of 9 μM DNA, 100 μM KCl, and 100 μM s-MGB, 1% DMSO. DNA solutions containing no S-MGB included 1% DMSO and were used as controls.
Native mass spectrometry experiments were carried out on a Synapt G2Si instrument (Waters, Manchester, UK) with a nanoelectrospray ionization source (nESI). Mass calibration was performed by a separate infusion of NaI cluster ions. Solutions were ionized from a thin-walled borosilicate glass capillary (i.d. 0.78 mm, o.d. 1.0 mm, Sutter Instrument Co., Novato, CA, USA) pulled in-house to nESI tip with a Flaming/Brown micropipette puller (Sutter Instrument Co., Novato, CA, USA). A negative potential in range of 1.0–1.2 kV was applied to the solution via a thin platinum wire (diameter 0.125 mm, Goodfellow, Huntingdon, UK). The following non-default instrument parameters were used for the DNA: S-MGB-241 complex: capillary voltage 1.4 kV, sample cone voltage 100 V, source offset 110 V, source temperature 40 °C, trap collision energy 3.0 (V), trap gas 3 mL min^−1. For DNA with no MGB present, the following parameters were changed: capillary voltage 1.0 kV, sample cone voltage 80 V, source offset 95 V and trap gas 4.0 mL min^−1. Data were processed using Masslynx V4.2 and OriginPro 2021, and figures were produced using Chemdraw.

Another assay concerns HEK293 cells. Kind of assay: HEK293 cell viability (resazurin) assay. Format: cell-based, Human. The following applies: for inhibition at 80 µM: Homo sapiens, HEK293, 72 h; for SI, HEK293/3D7: ratio of HEK293 IC50 (or relative IC50) to P. falciparum 3D7 IC50. The method, then:
Cell viability was assessed using a minor modification of the protocol previously described.[14] Human embryonic kidney cells (HEK293) were maintained in Dulbecco's modified Eagle's medium supplemented with 10% foetal bovine serum.

The next assay deals with P. falciparum 3D7. In words: in vitro asexual P. falciparum imaging assay, 3D7 strain. Format: cell-based. The following applies: Plasmodium falciparum. The method, then:
as §1

Where [3] appears, read: 3D7, strain not specified, read-out: potency against P. falciparum (approximate, conclusion).

One may read the ΔTm as the change in melting temperature against a reference sample. By inhibition is commonly meant the drop in the measured response relative to a control, in per cent. Low values mean a weak effect, high ones a strong effect. As to `Cn1cc(NC(=O)c2cc(NC(=O)c3ccc(/C=C/c4ccc5ccccc5c4)cc3)cn2C)cc1C(=O)NCCC(=N)N.O=C(O)C(F)(F)F` [S-MGB-359], in assay [1], the ΔTm worked out at 16 °C and the “Tm of S-MGB + gDNA” value was 86 °C. In addition, in the assay on P. falciparum Dd2, the IC50 worked out at 318.6 ± 1.1 nM and the Dd2/3D7 is 1.1. Moreover, in assay [2], the “binding to dsDNA as dimer [DS + 2 M]” value is “bind to DNA as dimers” and the “binding to dsDNA as monomer [DS + 1 M]” value is recorded as “minor peak corresponding to the monomer complex”. For the same compound, in the assay on HEK293 cells, the inhibition at 80 µM is 23% and the “SI, HEK293/3D7” value was greater than 264.8. Besides, the “HEK293 top concentration tested, used to calculate SI” value in the assay with HEK293 cells (not rIC50 as < 30% inhibition) is recorded as 80 nM. Moreover, the “SI, HEK293/3D7” value with HEK293 cells (listed as 359) is listed as greater than 264.8. Moreover, in the assay with P. falciparum 3D7 (3D7, 72 h, read-out: 3D7 IC50), the IC50 turned out to be 302.1 ± 0.6 nM. Further, the IC50 in the assay with P. falciparum 3D7 (setting [3]) is roughly 100 nM.

Turning to `Cn1cc(NC(=O)c2cc(NC(=O)c3ccc(/C=C/c4ccncc4)cc3)cn2C)cc1C(=O)NCCC(=N)N.O=C(O)C(F)(F)F.O=C(O)C(F)(F)F` [S-MGB-365], in assay [1], the thermal shift (ΔTm) amounted to 12 °C and the “Tm of S-MGB + gDNA” value was determined as 82 °C. Further, in the assay on P. falciparum Dd2, the IC50 was 79.6 ± 0.2 nM and the Dd2/3D7 was found to be 1.2. In assay [2], the “binding to dsDNA as dimer [DS + 2 M]” value is on record as “bind to DNA as dimers” and the “binding to dsDNA as monomer [DS + 1 M]” value is recorded as “no evidence”. Besides, in the assay on HEK293 cells, the inhibition at 80 µM is 95% and the “SI, HEK293/3D7” value is recorded as greater than 612.6. Moreover, the “SI, HEK293/3D7” value in the assay on HEK293 cells (listed as S-MGB-356) was greater than 612.6. Moreover, in the assay with P. falciparum 3D7 (3D7, 72 h, read-out: 3D7 IC50), the IC50 stood at 65.3 ± 0.2 nM. In addition, in the assay with P. falciparum 3D7 (setting [3]), the IC50 is roughly 100 nM.

For `COc1cccc(/C=C/c2ccc(C(=O)Nc3cc(C(=O)Nc4cc(C(=O)NCCC(=N)N)n(C)c4)n(C)c3)cn2)c1.O=C(O)C(F)(F)F.O=C(O)C(F)(F)F` [S-MGB-368], in assay [1], the ΔTm was 3 °C and the “Tm of S-MGB + gDNA” value came to 73 °C. Also, in the assay on P. falciparum Dd2, the IC50 came out at 201.7 ± 0.3 nM and the Dd2/3D7 is 1.5. Also, in assay [2], the “binding to dsDNA as dimer [DS + 2 M]” value was “bind to DNA as dimers” and the “binding to dsDNA as monomer [DS + 1 M]” value was “no evidence”. Also, in the assay on HEK293 cells, the inhibition at 80 µM worked out at 92% and the “SI, HEK293/3D7” value is greater than 335.8. Further, the “SI, HEK293/3D7” value in the assay on HEK293 cells (listed as 368) was greater than 335.8. For the same compound, in the assay with P. falciparum 3D7 (3D7, 72 h, read-out: 3D7 IC50), the IC50 turned out to be 134 ± 0.3 nM. The IC50 in the assay on P. falciparum 3D7 (setting [3]) is roughly 100 nM.
